Measured values from patent US8481600B2, “Formulation of aspirin that is stable and showing minimal hydrolysis for parenteral administration for the treatment of cardiovascular and other disease states” (Academic Pharmaceuticals, Inc., priority 2007, dated 2013).
Where “and” joins values, the source holds several entries; their conditions need not be identical. Equal entries are not always repeated.

Key:
[1] = HPLC analysis of ASA solutions for hydrolysis to salicylic acid (stability on storage); type: physicochemical
Protocol: (§1) A 10 μl solution of this formulation is tested using the following HPLC procedure for analysis. A constant-flow pump, Thermo-Finnigan Spectra-System P2000 was used to deliver eluent solvent at a rate of 1 ml/min to a column, Luna, 5μ, C8(2), 100 A, […] (Phenomenex, Calif.). The eluent solvent system was NaH2PO4 (0.025 M): Na2HPO4 (0.25 M): MeOH (25:25:50 V/V) pH adjusted to 3.2 with either phosphoric acid or concentrated HCL. Methanolic solutions of aspirin and salicylic acid 10 μl (concentration of 1 mg/ml) were injected onto the column. The eluted compounds were detected using a Spectra 200 programmable UV wavelength detector and Thermo-Finnigan Chrome Jet integrator. The wavelength of detector was either […]. Under these conditions, retention times for aspirin and hydrolysis product, salicylic acid was approximately 1.75 minutes and 3.34 minutes respectively. […]

[2] = Solution compatibility: NNDMA solution of ASA diluted with diluents, HPLC; type: physicochemical; settings: for Assay of Compounds: Aspirin / Assay of Compounds: Salicylic Acid: ASA in NNDMA diluted with D5W, RT
Protocol: In another series of experiments, 1 ml of the solution containing only NNDMA (Table 3) was diluted with 100 ml of diluents such as 1. distilled H2O, 2. Ringers lactate solution, 3. D5W and 4. normal saline and then the pH of these solutions were adjusted to 6.5 with 1 N NaOH. […] After 12 hours of storage, however, the hydrolysis of ASA was observed (up to 5% within 24 hours). […] One skilled in the art will recognize that modifications may be made in the persent invention without deviating from the spirit or scope of this invention which is illustrated further by the specific examples of dissolution attempts described herein and these examples are not to be construed as limiting the scope of this invention.
as §1

[3] = 25° C.; cited from earlier work
[4] = a. H2O (2.0 ml), 1-Propanol (0.5 ml), Tween 20 (0.5 ml), within 1 hr
[5] = aspirin dissolved in water (2 ml), upon mixing (FIG. 1)
[6] = glycerin (1 ml), 1-propanol (3 ml), Tween 80 (0.2 ml), upon mixing (FIG. 2)
[7] = 1 ml NNDMA solution diluted in D5W, after 12 hours (FIG. 6)

CC(=O)Oc1ccccc1C(=O)O [ASA, aspirin]
Purity of ASA in solution ([1]; 1. N,N-Dimethylacetamide (NNDMA)): >99%
Purity of ASA in solution ([1]; 2. NNDMA, Glycerol (0.1 in 10 ml), Tween 20 (0.1 in 10 ml)): Purity >99%
Purity of ASA in solution ([1]; 3. NNDMA, Glycerol (0.1 in 10 ml), Tween 40 (0.1 in 10 ml)): Purity >99%
Purity of ASA in solution ([1]; 4. NNDMA, Glycerol (0.1 in 10 ml), Tween 60 (0.1 in 10 ml)): Purity >99%
Purity of ASA in solution ([1]; 5. NNDMA, Glycerol (0.1 in 10 ml), Tween 80 (0.1 in 10 ml)): Purity >99%
Purity of ASA in solution ([1]; 6. NNDMA, Glycerol (0.1 in 10 ml)): Purity >99%
Purity of ASA in solution ([1]; 7. NNDMA, Glycerol (0.1 in 10 ml), DMSO (1-2%)): Purity >99%
Purity of ASA in solution ([1]; 8. NNDMA, DMSO (1.2%)): Purity >99%
Aspirin (HPLC purity) ([1]; ASA in NNDMA, 40° C., 6 months): 97.5% and 97.9%-98.6%
Aspirin (HPLC purity) ([1]; ASA in NNDMA, 40° C., 6 months, listed as aspirin): 98%
Aspirin (HPLC purity) ([1]; ASA in NNDMA, RT, 6 months): 99.4%
Salicylic Acid / hydrolysis product ([1]; ASA in NNDMA, RT, 6 months): 0.3%
stability of solution of ASA in NNDMA ([1]; Example 1: 1.0 gm of aspirin in 2 mL NNDMA): stable and resists hydrolysis
solution stability on pH adjustment ([1]; NNDMA solutions of Table 3, pH adjusted in the range of 1.5-6.0): without changing solution stability
aspirin purity (HPLC) ([1]; NNDMA, glycerol and Tween 20, RT, 6 months (FIG. 5)): 99%
HPLC Results: aspirin [1, 4]: ~95% aspirin
HPLC Results: salicylic acid [1, 4]: ~5%
amount of aspirin present ([1]; all 8 NNDMA solutions of Table 3, room temperature, 6 months): greater than 98%
hydrolysis on storage ([1]; all 8 NNDMA solutions of Table 3, stored at room temperature): no significant amount of hydrolysis could be detected
aspirin, HPLC peak 1 area [1, 5]: 95.4%
hydrolysis product, HPLC peak 2 [1, 5]: 4.9%
HPLC Results: salicylic acid ([1]; b. H2O (2.0 ml), 1-Propanol (0.5 ml), Tween 40, within 1 hr): ~5%
HPLC Results: salicylic acid ([1]; c. H2O (2.0 ml), 1-Propanol (0.5 ml), Tween 60, within 1 hr): ~5%
HPLC Results: salicylic acid ([1]; d. H2O (2.0 ml), 1-Propanol (0.5 ml), Tween 80, within 1 hr): ~5%
HPLC Results: salicylic acid ([1]; e. H2O (2.0 ml), 1-Propanol (0.5 ml), PEG 300, within 1 hr): ~5%
HPLC Results: salicylic acid ([1]; f. H2O (2.0 ml), 1-Propanol (0.5 ml), PEG 400, within 1 hr): ~5%
HPLC Results: salicylic acid ([1]; g. H2O (2.0 ml), 1-Propanol (0.5 ml), PEG 600, within 1 hr): ~5%
aspirin, HPLC peak 1 [1, 6]: 94.3%
hydrolysis product, HPLC peak 2 [1, 6]: 5.7%
HPLC Results: salicylic acid ([1]; h. H2O (2.0 ml), 1-Propanol (0.5 ml), Glycerol, within 1 hr): ~5%
HPLC Results: salicylic acid ([1]; i. H2O (2 ml), +DMSO (1-2%), Tween 20, within 1 hr): ~5%
HPLC Results: salicylic acid ([1]; j. H2O (2 ml), +DMSO (1-2%), Tween 40, within 1 hr): ~5%
HPLC Results: salicylic acid ([1]; k. H2O (2 ml), +DMSO (1-2%), Tween 60, within 1 hr): ~5%
HPLC Results: salicylic acid ([1]; l. H2O (2 ml), +DMSO (1-2%), Tween 80, within 1 hr): ~5%
HPLC Results: salicylic acid ([1]; m. Glycerine (1 ml), 1-Propanol (3 ml), Tween 80 (0.2 ml), within 1 hr): ~5%
HPLC Results: salicylic acid ([1]; n. Glycerine (1 ml), 1,2 propanediol (3 ml), Tween 80 (0.2 ml), within 1 hr): ~5%
HPLC Results: salicylic acid ([1]; o. Glycerine (1 ml), PEG 300 (3 ml), Tween 80 (0.2 ml), within 1 hr): ~5%
HPLC Results: salicylic acid ([1]; p. Glycerine (1 ml), PEG 400 (3 ml), Tween 80 (0.2 ml), within 1 hr): ~5%
HPLC Results: salicylic acid ([1]; q. Glycerine (1 ml), PEG 600 (3 ml), Tween 80 (0.2 ml), within 1 hr): ~5%
stability of clear solutions in NNDMA on storage ([1]; room temperature and 40° C., 6 months): without the formation of turbidity or a precipitate and without significant hydrolysis of aspirin
salicylic acid (hydrolysis product) in solutions of ASA ([1]; the 17 solvent systems of Table 2, within one hour, aspirin 50-75 mg/ml, pH 1.5 to 6.8): ≥ 5%
stability in N,N-dimethylacetamide ([1]; up to 500 mg/ml, stored at 40° C. for up to 6 months): without undergoing significant hydrolysis
HPLC peak 2 [2, 7]: 0.3%
HPLC peak 3 [2, 7]: 0.4%
aspirin purity, HPLC peak 1 ([2]; 1 ml NNDMA solution diluted in distilled water and glucose (D5W), after 12 hours (FIG. 6)): 95% and 94.8%
appearance of diluted solutions ([2]; 1 ml NNDMA solution in 100 ml distilled H2O, Ringers lactate, D5W or normal saline, pH 6.5, after several days): remained clear
hydrolysis of ASA ([2]; 1 ml NNDMA solution in 100 ml distilled H2O, Ringers lactate, D5W or normal saline, pH 6.5, up to 12 hours of storage): < 1%
hydrolysis of ASA ([2]; 1 ml NNDMA solution in 100 ml distilled H2O, Ringers lactate, D5W or normal saline, pH 6.5, within 24 hours): up to 5%
Assay of Compounds: Aspirin ([2]; up to 12 hours): >99%
Assay of Compounds: Salicylic Acid ([2]; up to 12 hours): <1%
Assay of Compounds: Aspirin ([2]; up to 24 hours): 94.7-95.3%
Assay of Compounds: Salicylic Acid ([2]; up to 24 hours): Max. ~6%
solubility in water [3]: poor solubility
